Values after ≈ are worked out from the molar mass of the structure shown. Values belong to the molecule of their own block, whether it stands above or below them.
Experiments:
[1] = Thermodynamic solubility of compound in water at 2 mg after 24 hrs; assay type: physicochemical; details: read-out: Therm_solubility
[2] = Cytotoxicity against human CEM-SS cells assessed as reduction in cell viability by XTT assay; assay type: cell-based
[3] = Thermodynamic solubility of compound in plON buffer at 2 mg after 24 hrs; assay type: physicochemical; details: read-out: Therm_solubility
[4] = test system: Human immunodeficiency virus 1; test: Antiviral activity against HIV1 3B infected in human CEM-SS cells assessed as reduction in cytopathic effect after 4 days; assay type: functional, organism-based
[5] = Selectivity index, ratio of CC50 for human CEM-SS cells to EC50 for Antiviral activity against HIV1 3B infected in human CEM-SS cells; assay type: toxicity, cell-based; details: for selectivity ratio: CEM-SS cells, read-out: Ratio CC50/EC50
[6] = test system: Human immunodeficiency virus 1; test: Antiviral activity against HIV1 3B; assay type: functional, organism-based; details: Human immunodeficiency virus 1, 3B
[7] = Drug concentration in Sprague-Dawley rat at 2 mg/kg, iv after 24 hrs by LC-MS/MS analysis; assay type: ADME, organism-based; details: in vivo, read-out: Drug uptake
[8] = Cmax in Sprague-Dawley rat at 2 mg/kg, iv up to 24 hrs by LC-MS/MS analysis; assay type: ADME, organism-based; set-up: route intravenous, dose 2 mg/kg, time <=24; details: in vivo
[9] = Elimination rate constant Sprague-Dawley rat at 2 mg/kg, iv up to 24 hrs by LC-MS/MS analysis; assay type: ADME, organism-based; details: in vivo
[10] = Stability in rat liver microsomes assessed as parent compound remaining at 1 uM up to 24 hrs by LC-MS/MS analysis; assay type: ADME, Microsome; details: read-out: Stabilty
[11] = AUClast in Sprague-Dawley rat at 10 mg/kg, po up to 24 hrs by LC-MS/MS analysis; assay type: ADME, organism-based; set-up: route oral, dose 10 mg/kg, time <=24; details: in vivo
[12] = Cmax in Sprague-Dawley rat at 10 mg/kg, po up to 24 hrs by LC-MS/MS analysis; assay type: ADME, organism-based; set-up: route oral, dose 10 mg/kg, time <=24; details: in vivo
[13] = MRTlast in Sprague-Dawley rat at 2 mg/kg, iv up to 24 hrs by LC-MS/MS analysis; assay type: ADME, organism-based; details: in vivo
[14] = Oral bioavailability in Sprague-Dawley rat at 10 mg/kg up to 24 hrs by LC-MS/MS analysis; assay type: ADME, organism-based; details: in vivo
[15] = Elimination rate constant Sprague-Dawley rat at 10 mg/kg, po up to 24 hrs by LC-MS/MS analysis; assay type: ADME, organism-based; details: in vivo
[16] = Stability in human liver microsomes assessed as parent compound remaining at 1 uM up to 24 hrs by LC-MS/MS analysis; assay type: ADME, Microsome; details: read-out: Stabilty
[17] = AUCinfinity in Sprague-Dawley rat at 10 mg/kg, po up to 24 hrs by LC-MS/MS analysis; assay type: ADME, organism-based; set-up: route oral, dose 10 mg/kg, time <=24; details: in vivo
[18] = Drug concentration in Sprague-Dawley rat at 2 mg/kg, iv after 8 hrs by LC-MS/MS analysis; assay type: ADME, organism-based; details: in vivo, read-out: Drug uptake
[19] = AUClast in Sprague-Dawley rat at 2 mg/kg, iv up to 24 hrs by LC-MS/MS analysis; assay type: ADME, organism-based; set-up: route intravenous, dose 2 mg/kg, time <=24; details: in vivo
[20] = Protein binding in human plasma at 1 uM after 4 hrs by LC-MS/MS analysis; assay type: ADME, cell-free; details: read-out: PPB
[21] = Protein binding in rat plasma at 1 uM after 4 hrs by LC-MS/MS analysis; assay type: ADME, cell-free; details: read-out: PPB (converted)
[22] = Half life in Sprague-Dawley rat at 10 mg/kg, po up to 24 hrs by LC-MS/MS analysis; assay type: ADME, organism-based; details: in vivo
[23] = MRTlast in Sprague-Dawley rat at 10 mg/kg, po up to 24 hrs by LC-MS/MS analysis; assay type: ADME, organism-based; details: in vivo
[24] = AUCinfinity in Sprague-Dawley rat at 2 mg/kg, iv up to 24 hrs by LC-MS/MS analysis; assay type: ADME, organism-based; set-up: route intravenous, dose 2 mg/kg, time <=24; details: in vivo
[25] = Drug concentration in Sprague-Dawley rat at 10 mg/kg, po after 8 hrs by LC-MS/MS analysis; assay type: ADME, organism-based; details: in vivo, read-out: Drug uptake
[26] = Tmax in Sprague-Dawley rat at 2 mg/kg, iv up to 24 hrs by LC-MS/MS analysis; assay type: ADME, organism-based; details: in vivo
[27] = Tmax in Sprague-Dawley rat at 10 mg/kg, po up to 24 hrs by LC-MS/MS analysis; assay type: ADME, organism-based; details: in vivo
[28] = Drug concentration in Sprague-Dawley rat at 10 mg/kg, po after 24 hrs by LC-MS/MS analysis; assay type: ADME, organism-based; details: in vivo, read-out: Drug uptake
[29] = Human immunodeficiency virus 1, 3B, CEM-SS, 96 h

Structure (SMILES): C[C@H]1CO[C@@H]2Cn3cc(C(=O)NCc4ccncc4F)c(=O)c(O)c3C(=O)N12
solubility thermodynamic at 24 h [1]: 78 µg/mL (≈ 201 µM)
CC50 [2]: > 10 nM
solubility thermodynamic at 24 h [3]: 91 µg/mL (≈ 234 µM)
EC50 [4, 29]: > 10 nM

Structure (SMILES): C[C@@H]1CCO[C@H]2Cn3cc(C(=O)NCc4ccc(F)nc4F)c(=O)c(O)c3C(=O)N12
selectivity ratio [5]: > 1.9
solubility thermodynamic at 24 h [1]: 57 µg/mL (≈ 136 µM)
CC50 [2]: > 10 nM
solubility thermodynamic at 24 h [3]: 80 µg/mL (≈ 190 µM)
EC50 [4, 29]: 5.15 nM

Structure (SMILES): C[C@@H]1CCO[C@H]2Cn3cc(C(=O)NCc4ccc(F)cc4F)c(=O)c(O)c3C(=O)N12 [DOLUTEGRAVIR]
EC50 [6]: 1.1 nM

Structure (SMILES): C[C@H]1CO[C@@H]2Cn3cc(C(=O)NCc4ccc(F)nc4F)c(=O)c([O-])c3C(=O)N12.[Na+]
Ratio CC50/EC50 [5]: > 2.08
solubility thermodynamic at 24 h [1]: 2680 µg/mL
solubility thermodynamic at 24 h [3]: 1680 µg/mL
EC50 ([4]; cem-ss): 4.8 nM

Structure (SMILES): C[C@H]1CO[C@@H]2Cn3cc(C(=O)NCc4cccc5cccnc45)c(=O)c(O)c3C(=O)N12
selectivity ratio [5]: > 4.6
solubility thermodynamic at 24 h [1]: 10 µg/mL (≈ 23.8 µM)
CC50 [2]: > 10 nM
solubility thermodynamic at 24 h [3]: 6 µg/mL (≈ 14.3 µM)
EC50 [4, 29]: 2.17 nM

Further molecules by falling EC50 [4, 29], results first:

solubility thermodynamic at 24 h [1]: 33 µg/mL (≈ 87.9 µM)
solubility thermodynamic at 24 h [3]: 24 µg/mL (≈ 63.9 µM)
EC50 [4, 29]: 1.44 nM
Structure (SMILES): C[C@H]1CO[C@@H]2Cn3cc(C(=O)NCc4cccs4)c(=O)c(O)c3C(=O)N12
selectivity ratio [5]: > 6.9
CC50 [2]: > 10 nM

solubility thermodynamic at 24 h [1]: 318 µg/mL (≈ 719 µM)
solubility thermodynamic at 24 h [3]: 318 µg/mL (≈ 719 µM)
EC50 [4, 29]: 0.59 nM
Structure (SMILES): C[C@H]1CO[C@@H]2Cn3cc(C(=O)NCc4nn(C)c(Cl)c4Cl)c(=O)c(O)c3C(=O)N12
selectivity ratio [5]: > 16.9
CC50 [2]: > 10 nM

concentration at 24 h [7]: 16600 ng/mL
Cmax [8]: 37200 ng/mL
Kel [9]: 0.03 h⁻¹
remaining at 24 h, 1 µM [10]: 110%
solubility thermodynamic at 24 h [1]: 2.85 µg/mL (≈ 6.93 µM)
AUC(0-t) at 24 h [11]: 66.9 µg·h/mL
Cmax [12]: 3680 ng/mL
MRTlast [13]: 9.81 h
F [14]: 17.5%
solubility thermodynamic at 24 h [3]: 3.2 µg/mL (≈ 7.78 µM)
k el at 24 h [15]: 5.56e-06 s⁻¹
remaining at 24 h, 1 µM [16]: 105%
AUC [17]: 200.296 µg·h/mL
EC50 [4, 29]: 0.43 nM
concentration at 8 h [18]: 24500 ng/mL
AUC(0-t) at 24 h [19]: 578 µg·h/mL
fraction unbound at 4 h, 1 µM [20]: 0.001
fraction unbound at 4 h, 1 µM [21]: 0.9
half-life [22]: 35 h
MRT last at 24 h [23]: 11.3 h
AUC [24]: 1139.52 µg·h/mL
concentration at 8 h [25]: 3470 ng/mL
Tmax [26]: 1 h
Tmax [27]: 6.67 h
concentration at 24 h [28]: 4440 ng/mL
Structure (SMILES): C[C@H]1CO[C@@H]2Cn3cc(C(=O)NCc4ccc5nonc5c4)c(=O)c(O)c3C(=O)N12
CC50 [2]: > 10 nM

— ChEMBL document CHEMBL4680174, “Synthesis, biological evaluation and in silico modeling of novel integrase strand transfer inhibitors (INSTIs)” (Eur J Med Chem, 2020)
